# According to patent US9150586B2, “Piperidino-dihydrothienopyrimidine sulfoxides and their use for treating COPD and asthma” (Boehringer Ingelheim International GmbH, priority 2011, dated 2015):
# Entries after “also recorded” stand apart in the source; their conditions may differ.
# Columns and labels:
# [1] = test system: LPS-induced neutrophil influx into bronchoalveolar lavage fluid; test: LPS-induced lung inflammation model: inhibition of LPS-induced neutrophil influx into bronchoalveolar lavage fluid; format: in vivo, male Wistar rats; details: for ED50 (half-maximal effective dose), inhibition of LPS-induced neutrophil influx into BALF: male Wistar rats, oral by gavage, BALF 4 hours after end of LPS exposure, nonlinear fit; for ED50 found in efficacy studies in the rat (restated in dose table): p.o., LPS-induced neutrophil influx
# Method: The anti-inflammatory activity of Examples 1 and 2 and of Prior art compounds A and D was assessed in an in vivo LPS-induced lung inflammation model in rats.
# As a measure of the pharmacological potency of the above mentioned compounds the half-maximal effective dose (ED50) in regard to the inhibition of lipopolysaccharide-induced (LPS-induced) neutrophil influx into the bronchoalveolar lavage fluid (BALF) was determined by assessing the dose response relationship. Bacterial endotoxins (lipopolysaccharides [LPS]) are components of the outer bacterial cell membrane which play an important role in the pathogenesis of infections with gram-negative bacteria. It is known that inhalation of such aerosolized LPS induces a dose-dependent increase in neutrophils to lung tissues and airspaces in rats which may be detected by analyzing the amount of neutrophils in the bronchoalveolar lavage fluid (BALF). However, this dose-dependent increase of neutrophils in the BALF should be diminished in a dose-dependent way in the presence of an effective PDE4-inhibitor.
# Male Wistar rats (HanWistar) from an approved local distributor were used for the experiments. The ordered weight of the animals was in the range of 200-250 g. Animals were fasted overnight before the experiment. A total number of 32 animals were used for each experiment. Eight animals (n=8) per dose were used for the treatment groups, […].
# The animals of the LPS-control and of the negative control groups received“vehicle only” (“vehicle only” corresponds to 10 ml/kg body weight 0.5% Natrosol solution). The other groups were treated with the different doses of either Example compound 1, Example compound 2, Prior art compound A or Prior art compound D respectively (see Table D).
# The amount of compound for the highest concentration tested for each compound was suspended in 10 ml 0.5% Natrosol (Hydroxyethylcellulose) solution and then diluted to the respective concentrations as shown in Table D. The respective compound suspension or “vehicle only” (10 ml/kg body weight 0.5% Natrosol solution) was administered orally by gavage. The resulting doses of the individual compounds corresponded to Table D:
# One hour (0.5 hour for Prior art compound A and for Prior art compound D) after compound application (time set to allow for sufficient exposure as guided by prior pharmacokinetic experiments) the animals were exposed to nebulised/aerosolized LPS. The whole body exposure of 12 animals each was performed in a plexi glas chamber. Animals were separated/individualized with perforated metal plates. The aerosol was generated with a commercially available nebuliser (PARI Master+PARI LL nebuliser (Pari GmbH). The concentration of the nebulized LPS-solution was 1 mg/ml air. The duration of the LPS exposure was 30 minutes.
# 4 hours after the end of LPS exposure animals were anesthetised with Isoflorane and euthanised thereafter by cervical dislocation. The trachea was cannulated and BALF was performed using 2×5 mL lavage buffer (phosphate buffered saline (PBS)+2% BSA).
# Determination of neutrophil content of the BALF was performed using an ADVIA 120 blood hemacytometer (Bayer Diagnostics). Neutrophil data were normalised (Positive Control (=LPS treatment alone)=100%, Negative Control (no LPS treatment, administration of “vehicle only”)=0%) and expressed as percent of LPS control. The ED50 was calculated using a nonlinear fit (with the Graph Pad Prism software and a sigmoidal dose response fit).
# The ED50-value is the half-maximal effective dosis of the compound in question with respect to its inhibition of an LPS-induced neutrophil influx into BALF. Consequently a very small ED50-value stands for a good capability of the respective compound to prevent neutrophil influx into the lung tissue after LPS exposure and therefore for a good capacity of the respective compound to prevent inflammation of the lung tissue. […]
# [2] = Gastric emptying and gastrointestinal transit in conscious rats (barium sulfate test meal); format: in vivo, Wistar rats; details: for intestinal transit versus negative control: doses up to 30-fold ED50 dose p.o.
# Method: In order to evaluate whether the compounds of the present invention lead to gastrointestinal side effects the compounds of the invention have been administered to rats 30 minutes before the rats were fed with a test meal comprising barium sulfate. After that it was tested whether gastric emptying and/or gastrointestinal transit in these rats was affected by the presence of these compounds.
# The effects of the compounds Example 1 and Example 2 on gastric emptying and gastrointestinal transit in conscious rats has been investigated as described below. Wistar rats of both sexes weighing 130-160 g (ages: male 7 wk, female 8 wk) were used. The animals are obtained from an approved local distributor, a minimum of four days quarantine is required before use, during which time the animals are maintained under routine animal care procedures. Groups of up to 5 animals are housed in cages in a room with controlled temperature and humidity and a light/dark cycle with the lights on from 6 a.m. to 6 p.m. The animals have access to normal rodent chow and water ad libitum. The animals are transported to the laboratory on the day of experimentation. Gastric emptying as well as small intestinal propulsion are determined using a barium sulfate test meal. Five rats Crl:WI(Han) of each sex (n=10) were used. The animals were deprived of food 17 h prior to the experiment but allowed free access to water.
# The drug under investigation (drug was suspended to the concentration of 10 ml/kg body weight in 0.5% Natrosol solution) or the negative control (vehicle alone was given 10 ml/kg body weight) was administered 30 min. (p.o.) before the test meal at doses calculated to be 3-fold, 10-fold or 30-fold the ED50 found in efficacy studies in the rat.
# The test meal (suspension of 7.5 g barium sulfate in 10 ml salt-free water) is given orally by gavage at a dose of 2 ml/100 g body weight. Thirty minutes after the administration of the test meal the animals were killed in deep isoflurane anaesthesia by cervical dislocation. The stomach and the intestine were then exposed by laparatomy and removed.
# The removed stomach was weighed, then incised, the contents removed and the empty stomach is weighed again.
# The length of gut traversed with barium sulfate in relation to the whole length of the gut is determined by direct measurements using a ruler.
# The gastric content was calculated from the weight difference between the filled and empty stomach and normalized to 100 g body weight. Thus, an increase in weight difference indicated an impaired gastric emptying, whereas a decrease in weight difference indicated an enhanced gastric emptying.
# The length of gut traversed with barium sulphate (as judged by visual inspection) in relation to the whole length of the gut (from the pylorus to the rectum) is determined by direct measurements using a ruler.
# Intestinal transit is calculated as the percentage movement of barium sulphate in the intestine in relation to the whole length of the gut. Consequently an increased intestinal transit length indicated an accelerated intestinal transit whereas a decreased intestinal transit length indicated decelerated intestinal transit.
# Data are expressed as mean±standard deviation (SD). For each dose, comparisons were performed using an analysis of variance (ANOVA) and a post hoc Dunnett test to compare the various groups to the controls when the ANOVA was significant. p<0.05 was considered significant.
# [3] = all tested doses up to 30-fold ED50 dose p.o.
smiles,measurement,setting,value
"[O-][S+]1CCc2nc(N3CCC(c4ccc(Cl)cc4)CC3)nc(NC3(CO)CCC3)c21 (single isomer, unassigned) [Example 1]","ED50 (half-maximal effective dose), inhibition of LPS-induced neutrophil influx into BALF",[1],0.31 mg/kg body weight
same,ED50 found in efficacy studies in the rat (restated in dose table),[1],(ED50 = 0.31 mg/kg BW
same,gastric emptying versus negative control,"[2]; 3-fold ED50 dose p.o., 30 min before test meal",no relevant differences
same,gastric emptying versus negative control,"[2]; 10-fold ED50 dose p.o., 30 min before test meal",no relevant differences
same,gastric emptying versus negative control,"[2]; 30-fold ED50 dose p.o., 30 min before test meal",only a very moderate enhancement of the weight difference per body weight
same,gastric emptying versus negative control,[2]; [3],neither showed a substantially enhanced or impaired gastric emptying
same,intestinal transit versus negative control,[2],nor a substantially accelerated or decelerated intestinal transit; also recorded: no significant differences
"[O-][S+]1CCc2nc(N3CCC(c4ncc(Cl)cn4)CC3)nc(NC3(CO)CCC3)c21 (single isomer, unassigned) [Example 2]","ED50 (half-maximal effective dose), inhibition of LPS-induced neutrophil influx into BALF",[1],0.1 mg/kg body weight
same,ED50 found in efficacy studies in the rat (restated in dose table),[1],(ED50 = 0.1 mg/kg BW
same,gastric emptying versus negative control,[2]; [3],neither showed a substantially enhanced or impaired gastric emptying; also recorded: no relevant differences
same,intestinal transit versus negative control,[2],nor a substantially accelerated or decelerated intestinal transit; also recorded: no relevant differences
"[O-][S+]1CCc2nc(N3CCC(c4ccc(Cl)cc4)CC3)nc(NC3(CO)CC3)c21 (stereo not shown) [Prior art compound A, reference compound]","ED50 (half-maximal effective dose), inhibition of LPS-induced neutrophil influx into BALF",[1],1.13 mg/kg body weight
"[O-][S+]1CCc2nc(N3CCC(c4cccc(Cl)c4)CC3)nc(NC3(CO)CC3)c21 (stereo not shown) [Prior art compound D, reference compound]","ED50 (half-maximal effective dose), inhibition of LPS-induced neutrophil influx into BALF",[1],6.66 mg/kg body weight
